Test results from patent publication US8901035B2, “Herbicidal compositions comprising 4-amino-3-chloro-5-fluoro-6-(4-chloro-2-fluoro-3-methoxyphenyl) pyridine-2-carboxylic acid or a derivative thereof and cellulose biosynthesis inhibitor herbicides” (Dow AgroSciences LLC, priority 2012, dated 2014).

Tests used:
Assay type in all cases: in vivo
[1] = test system: Ipomoea hederacea Jacq. (IPOHE); test: Postemergence foliar-applied herbicidal mixtures, weed control in direct seeded rice (greenhouse)
Description: (§1) Seeds or nutlets of the desired test plant species were planted in a soil matrix prepared by mixing a loam or sandy loam soil (e.g., 28.6 percent silt, 18.8 percent clay, and 52.6 percent sand, with a pH of about 5.8 and an organic matter content of about 1.8 percent) and calcareous grit in an 80 to 20 ratio. The soil matrix was contained in plastic pots with a volume of 1 quart and a surface area of 83.6 square centimeters (cm^2). When required to ensure good germination and healthy plants, a fungicide treatment and/or other chemical or physical treatment was applied. The plants were grown for 8-22 days in a greenhouse with an approximate 14 h photoperiod which was maintained at about 29° C. during the day and 26° C. during the night. Nutrients (Peters Excel® 15-5-15 5-Ca 2-Mg and iron chelate) were applied in the irrigation solution as needed and water was added on a regular basis. Supplemental lighting was provided with overhead metal halide 1000-Watt lamps as necessary. The plants were employed for testing when they reached the first through fourth true leaf stage.
(§2) Treatments consisted of the acid or esters of 4-amino-3-chloro-5-fluoro-6-(4-chloro-2-fluoro-3-methoxy-phenyl) pyridine-2-carboxylic acid (Compound A), each formulated as an SC (suspension concentrate), and various herbicidal components alone and in combination. Forms of compound A were applied on an acid equivalent basis.
(§3) Other herbicidal components were applied on an active ingredient basis and included cellulose biosynthesis-inhibiting (CBI) herbicides isoxaben formulated as Gallery® 75DF and indaziflam formulated as Specticle® 20WSP.
(§4) Treatment requirements were calculated based upon the rates being tested, the concentration of active ingredient or acid equivalent in the formulation, and a 12 mL application volume at a rate of 187 L/ha.
(§5) For treatments comprised of formulated compounds, measured amounts of compounds were placed individually in 25 mL glass vials and diluted in a volume of 1.25% (v/v) Agri-Dex® crop oil concentrated to obtain 12× stock solutions. […] Application solutions were prepared by adding an appropriate amount of each stock solution (e.g., 1 mL) and diluted to the appropriate final concentrations with the addition of 10 mL of an aqueous mixture of 1.25% (v/v) crop oil concentrate so that the final spray solutions contained 1.25+/−0.05% (v/v) crop oil concentrate.
(§6) All stock solutions and applications solutions were visually inspected for compound compatibility prior to application. Spray solutions were applied to the plant material with an overhead Mandel track sprayer equipped with a 8002E nozzles calibrated to deliver 187 L/ha over an application area of 0.503 m^2 at a spray height of 18 to 20 inches (46 to 50 cm) above average plant canopy height. Control plants were sprayed in the same manner with the solvent blank.
(§7) The treated plants and control plants were placed in a greenhouse as described above and watered by sub-irrigation to prevent wash-off of the test compounds. After approximately 3 weeks, the condition of the test plants as compared with that of the untreated plants was determined visually and scored on a scale of 0 to 100 percent where 0 corresponds to no injury or growth inhibition and 100 corresponds to complete kill.
(§8) Colby's equation was used to determine the herbicidal effects expected from the mixtures (Colby, S. R. 1967. Calculation of the synergistic and antagonistic response of herbicide combinations. Weeds 15:20-22).
(§9) The following equation was used to calculate the expected activity of mixtures containing two active ingredients, A and B: Expected=A+B−(A×B/100)
(§10) A=observed efficacy of active ingredient A at the same concentration as used in the mixture.
(§11) B=observed efficacy of active ingredient B at the same concentration as used in the mixture.

[2] = test system: Digitaria sanguinalis (L.) Scop. (DIGSA); test: as above
Description: as §1, §2, §3, §4, §5, §6, §7, §8, §9, §10, §11

[3] = test system: Leptochloa chinensis (L.) Nees (LEFCH); test: as above
Description: as §1, §2, §3, §4, §5, §6, §7, §8, §9, §10, §11

[4] = test system: Brachiaria platyphylla (Griseb.) Nash or Urochloa platyphylla (Nash) R.D. Webster (BRAPP); test: as above
Description: as §1, §2, §3, §4, §5, §6, §7, §8, §9, §10, §11

Cyperus iria L. (CYPIR) = test: as above
Description: as §1, §2, §3, §4, §5, §6, §7, §8, §9, §10, §11

[5] = test system: Xanthium strumarium L. (XANST); test: Pre-emergence soil-applied herbicidal mixtures for weed control (greenhouse)
Description: Seeds or nutlets of the desired test plant species were planted in a soil matrix prepared by mixing a loam soil (e.g., 32 percent silt, 23 percent clay, and 45 percent sand, with a pH of about 6.5 and an organic matter content of about 1.9 percent) and calcareous grit in an 80 to 20 ratio. The soil matrix was contained in plastic pots with a volume of 1 quart and a surface area of 83.6 square centimeters (cm^2).
Treatments consisted of the benzyl ester of 4-amino-3-chloro-5-fluoro-6-(4-chloro-2-fluoro-3-methoxy-phenyl)pyridine-2-carboxylic acid (compound A) formulated as an SC (suspension concentrate) and various herbicidal components alone and in combination. Forms of compound A were applied on an acid equivalent basis.
Other herbicidal components were applied on an acid equivalent or active ingredient basis and included the cellulose biosynthesis inhibiting herbicides, isoxaben formulated as Gallery® 75DF and indaziflam formulated as Specticle® 20WSP.
as §4
For treatments comprised of formulated compounds, measured amounts of compounds were placed individually in 25 mL glass vials and diluted in a volume of 1.25% (v/v) Agri-Dex® crop oil concentrate (COC) to obtain 12× stock solutions. […] Application solutions were prepared by adding an appropriate amount of each stock solution (e.g., 1 mL) and diluted to the appropriate final concentrations with the addition of 10 mL of an aqueous mixture of 1.25% (v/v) COC so that the final spray solutions contained 1.25% (v/v) COC.
All stock solutions and applications solutions were visually inspected for compound compatibility prior to application. Spray solutions were applied to the soil with an overhead Mandel track sprayer equipped with a 8002E nozzles calibrated to deliver 187 L/ha over an application area of 0.503 m^2 at a spray height of 18 inches (46 cm) above average pot height. Control pots were sprayed in the same manner with the solvent blank.
The treated and control pots were placed in a greenhouse and top watered as needed. When required to ensure good germination and healthy plants, a fungicide treatment and/or other chemical or physical treatment was applied. The pots were maintained in a greenhouse with an approximate 14 hr. photoperiod which was maintained at about 29° C. during the day and 26° C. during the night. Nutrients (Peters® Excel 15-5-15 5-Ca 2-Mg) were applied in the irrigation solution as needed and water was added on a regular basis. Supplemental lighting was provided with overhead metal halide 1000-Watt lamps as necessary. After approximately 4 weeks, the condition of the test plants as compared with that of the untreated plants was determined visually and scored on a scale of 0 to 100 percent where 0 corresponds to no injury or growth inhibition and 100 corresponds to complete kill.
as §8, §9, §10, §11

[6] = Compound A Benzyl Ester 4.38 g ae/ha alone
[7] = Compound A Benzyl Ester 8.75 g ae/ha alone
[8] = Compound A Benzyl Ester 17.5 g ae/ha alone

With `CCC(C)(CC)c1cc(NC(=O)c2c(OC)cccc2OC)on1` [Isoxaben, N-[3-(1-ethyl-1-methylpropyl)-5-isoxazolyl]-2,6-dimethoxybenzamide, reference compound] the “Visual Weed Control (%) - 20 DAA Obs” value ([1]; Isoxaben 140 g ai/ha alone) was 15%, the “Visual Weed Control (%) - 20 DAA Obs” value ([1]; Isoxaben 280 g ai/ha alone) was 25% and the “Visual Weed Control (%) - 20 DAA Obs” value ([2]; Isoxaben 280 g ai/ha alone) was 10%. For the same compound, the “Visual Weed Control (%) - 20 DAA Obs” value ([2]; Isoxaben 560 g ai/ha alone) was 20%, the “Visual Weed Control (%) - 20 DAA Obs” value ([3]; Isoxaben 140 g ai/ha alone) was 0% and the “Visual Weed Control (%) - 20 DAA Obs” value ([3]; Isoxaben 280 g ai/ha alone) was 0%. For the same compound, the “Visual Weed Control (%) - 20 DAA Obs” value ([4]; Isoxaben 140 g ai/ha alone) was 0%, the “Visual Weed Control (%) - 20 DAA Obs” value ([4]; Isoxaben 280 g ai/ha alone) was 0% and the “Visual Weed Control (%) - 20 DAA Obs” value ([4]; Isoxaben 560 g ai/ha alone) was 20%. For the same compound, the “Visual Weed Control (%) - 20 DAA Obs” value (Cyperus iria L. (CYPIR); Isoxaben 140 g ai/ha alone) was 10%, the “Visual Weed Control (%) - 20 DAA Obs” value (Cyperus iria L. (CYPIR); Isoxaben 280 g ai/ha alone) was 60% and the “Visual Weed Control (%) - 20 DAA Obs” value (Cyperus iria L. (CYPIR); Isoxaben 560 g ai/ha alone) was 50%.

For `COc1c(Cl)ccc(-c2nc(C(=O)OCc3ccccc3)c(Cl)c(N)c2F)c1F` [Compound A Benzyl Ester, benzyl ester of 4-amino-3-chloro-5-fluoro-6-(4-chloro-2-fluoro-3-methoxy-phenyl)pyridine-2-carboxylic acid], the “Visual Weed Control (%) - 20 DAA Obs” value [1, 6] was 10%, the “Visual Weed Control (%) - 20 DAA Obs” value [1, 7] was 10% and the “Visual Weed Control (%) - 20 DAA Obs” value [1, 8] was 15%. For the same compound, the “Visual Weed Control (%) - 21 DAA Obs” value [2, 6] was 10%, the “Visual Weed Control (%) - 20 DAA Obs” value [2, 7] was 30% and the “Visual Weed Control (%) - 21 DAA Obs” value [2, 7] was 45%. For the same compound, the “Visual Weed Control (%) - 20 DAA Obs” value [2, 8] was 30%, the “Visual Weed Control (%) - 21 DAA Obs” value [2, 8] was 70% and the “Visual Weed Control (%) - 21 DAA Obs” value [3, 6] was 30%. The “Visual Weed Control (%) - 21 DAA Obs” value [3, 7] was 35%, the “Visual Weed Control (%) - 21 DAA Obs” value [3, 8] was 35% and the “Visual Weed Control (%) - 20 DAA Obs” value [4, 6] was 70%. For the same compound, the “Visual Weed Control (%) - 20 DAA Obs” value [4, 7] was 80%, the “Visual Weed Control (%) - 20 DAA Obs” value [4, 8] was 90% and the “Visual Weed Control (%) - 20 DAA Obs” value (Cyperus iria L. (CYPIR); [6]) was 70%. The “Visual Weed Control (%) - 28 DAA XANST Obs” value ([5]; Compound A Benzyl Ester 16 g ae/ha alone) was 0% and the “Visual Weed Control (%) - 28 DAA XANST Obs” value ([5]; Compound A Benzyl Ester 32 g ae/ha alone) was 5%.
